Measurements taken from ChEMBL document CHEMBL4229463, “Regio- and stereospecific synthesis of rac-carbasugar-based cyclohexane pentols; Investigations of their α- and β-glucosidase inhibitions” (Bioorg Med Chem, 2018).

Legend:
Prunus dulcis [1] = assay: Inhibition of almond beta-glucosidase at 60 uM using PNPG as substrate after 3 mins by UV-vis spectrophotometric method relative to control
Saccharomyces cerevisiae [2] = assay: Inhibition of Saccharomyces cerevisiae alpha-glucosidase at 80 uM using PNPG as substrate after 3 mins by UV-vis spectrophotometric method relative to control
Saccharomyces cerevisiae [3] = assay: Inhibition of Saccharomyces cerevisiae alpha-glucosidase at 10 uM using PNPG as substrate after 3 mins by UV-vis spectrophotometric method relative to control
Prunus dulcis [4] = assay: Inhibition of almond beta-glucosidase at 120 uM using PNPG as substrate after 3 mins by UV-vis spectrophotometric method relative to control
Saccharomyces cerevisiae [5] = assay: Inhibition of Saccharomyces cerevisiae alpha-glucosidase at 120 uM using PNPG as substrate after 3 mins by UV-vis spectrophotometric method relative to control
Prunus dulcis [6] = assay: Inhibition of almond beta-glucosidase at 10 uM using PNPG as substrate after 3 mins by UV-vis spectrophotometric method relative to control
Prunus dulcis [7] = assay: Inhibition of almond beta-glucosidase at 40 uM using PNPG as substrate after 3 mins by UV-vis spectrophotometric method relative to control
Prunus dulcis [8] = assay: Inhibition of almond beta-glucosidase at 80 uM using PNPG as substrate after 3 mins by UV-vis spectrophotometric method relative to control
Prunus dulcis [9] = assay: Inhibition of almond beta-glucosidase at 20 uM using PNPG as substrate after 3 mins by UV-vis spectrophotometric method relative to control
Saccharomyces cerevisiae [10] = assay: Inhibition of Saccharomyces cerevisiae alpha-glucosidase at 60 uM using PNPG as substrate after 3 mins by UV-vis spectrophotometric method relative to control
[11] = Inhibition of Saccharomyces cerevisiae alpha-glucosidase using PNPG as substrate after 3 mins by UV-vis spectrophotometric method
Saccharomyces cerevisiae [12] = assay: Inhibition of Saccharomyces cerevisiae alpha-glucosidase at 40 uM using PNPG as substrate after 3 mins by UV-vis spectrophotometric method relative to control
Saccharomyces cerevisiae [13] = assay: Inhibition of Saccharomyces cerevisiae alpha-glucosidase at 20 uM using PNPG as substrate after 3 mins by UV-vis spectrophotometric method relative to control
[14] = Inhibition of almond beta-glucosidase using PNPG as substrate after 3 mins by UV-vis spectrophotometric method; design: species or system Prunus dulcis

| inhibition (Prunus dulcis [1]) [%] | inhibition (Saccharomyces cerevisiae [2]) [%] | inhibition (Saccharomyces cerevisiae [3]) [%] | inhibition (Prunus dulcis [4]) [%] | inhibition (Saccharomyces cerevisiae [5]) [%] | inhibition (Prunus dulcis [6]) [%] | inhibition (Prunus dulcis [7]) [%] | inhibition (Prunus dulcis [8]) [%] | inhibition (Prunus dulcis [9]) [%] | inhibition (Saccharomyces cerevisiae [10]) [%] | IC50 [11] [µM] | inhibition (Saccharomyces cerevisiae [12]) [%] | inhibition (Saccharomyces cerevisiae [13]) [%] | IC50 [14] [µM] | Compound |
| --- | --- | --- | --- | --- | --- | --- | --- | --- | --- | --- | --- | --- | --- | --- |
| 20.6 | 38 | 12.2 | 32.3 | 55 | 1.99 | 19.1 | 24.1 | 5.2 | 26.1 | 176 | 15 | 13.3 | – | OC[C@H]1C[C@H](Cl)[C@@H](O)[C@H](O)[C@H]1CO (racemic) |
| 21.1 | 34.8 | 3.98 | 26.4 | 56.4 | 2.49 | 18.4 | 24.6 | 11.7 | 23 | 155 | 20.4 | 7.9 | – | OC[C@H]1C[C@H](O)[C@@H](Cl)[C@H](O)[C@H]1CO (racemic) |
| 30.8 | 33.6 | 10.4 | 36.8 | 44.6 | 3.74 | 25.1 | 33.8 | 5.22 | 25.3 | – | 22.5 | 12.1 | – | OC[C@H]1C[C@@H](O)[C@H](O)[C@@H](O)[C@H]1CO (racemic) |
| 15.4 | 10.8 | 2.13 | 17.4 | 16 | 2.24 | 10.9 | 17.7 | 5.97 | 8.5 | – | 7.83 | 3.6 | – | OC[C@H]1C[C@H](O)[C@@H](O)[C@H](O)[C@H]1CO (racemic) |
| 4.29 | 9.5 | 3.42 | 23 | 16.3 | – | 2 | 12.9 | – | 8.21 | – | 7.93 | 5.59 | – | OC[C@H]1C[C@H](O)[C@H](O)[C@@H](O)[C@H]1CO (racemic) |
| 52 | 60 | 22.8 | 68 | 78 | 17 | 40 | 58 | 25 | 46 | 52.2 | 33 | 30 | 55.9 | C[C@H]1O[C@H](O[C@H]2[C@H](O)[C@@H](O)[C@@H](O[C@H]3[C@H](O)[C@@H](O)C(O)O[C@@H]3CO)O[C@@H]2CO)[C@H](O)[C@@H](O)[C@@H]1N[C@H]1C=C(CO)[C@@H](O)[C@H](O)[C@H]1O (some centres undefined) [ACARBOSE] |
